Test system: 422866-222-R5-J1-PDC complex spheroids viability
Assay: Anticancer human tumor 422866-222-R5-J1-PDC patient-derived pancreatic adenocarcinoma cell line growth inhibition [RAS]
Conditions: for IC50: curve of first compound; for viability, T/C: stronger effect = lower value
In short: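 Multi-cell-type spheroids: tumor cells plus HUVEC endothelial cells and mesenchymal stem cells. RAS-pathway inhibitors were combined with targeted agents, each dosed in half-log steps down from clinical Cmax, or from 10 microM when Cmax was unknown.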
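Further: spheroids exposed to compounds for 7 days.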
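Wherever viability, T/C is given: 100% = DMSO vehicle control viability.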

SMILES: CC(=O)OC12COC1CC(O)C1(C)C(=O)C(O)C3=C(C)C(OC(=O)C(O)C(NC(=O)OC(C)(C)C)c4ccccc4)CC(O)(C(OC(=O)c4ccccc4)C21)C3(C)C (centres undefined) + C=CC(=O)N1CCN(c2nc(OCC3CCCN3C)nc3c(F)c(-c4nc(N)cc(C)c4C(F)(F)F)c(Cl)cc23)C(C)C1
- IC50 (second compound 0.00316 µM): < 31.6 nM
- IC50 (second compound 0.01 µM): < 31.6 nM
- IC50 (second compound 0.0316 µM): < 31.6 nM
- IC50 (second compound 0.1 µM): < 31.6 nM
- IC50 (second compound 0.316 µM): < 31.6 nM
- IC50 (second compound 1 µM): < 31.6 nM
- viability, T/C (second compound 0.00316 µM, first compound 0.0316 µM): 19.5%
- viability, T/C (second compound 0.00316 µM, first compound 0.1 µM): 21.1%
- viability, T/C (second compound 0.00316 µM, first compound 0.316 µM): 26.7%
- viability, T/C (second compound 0.00316 µM, first compound 1 µM): 22%
- viability, T/C (second compound 0.00316 µM, first compound 3.16 µM): 19.1%
- viability, T/C (second compound 0.00316 µM, first compound 10 µM): 26%
- viability, T/C (second compound 0.01 µM, first compound 0.0316 µM): 21.5%
- viability, T/C (second compound 0.01 µM, first compound 0.1 µM): 20.8%
- viability, T/C (second compound 0.01 µM, first compound 0.316 µM): 20.4%
- viability, T/C (second compound 0.01 µM, first compound 1 µM): 17.6%
- viability, T/C (second compound 0.01 µM, first compound 3.16 µM): 20.4%
- viability, T/C (second compound 0.01 µM, first compound 10 µM): 19.6%
- viability, T/C (second compound 0.0316 µM, first compound 0.0316 µM): 17.9%
- viability, T/C (second compound 0.0316 µM, first compound 0.1 µM): 20.8%
- viability, T/C (second compound 0.0316 µM, first compound 0.316 µM): 19.3%
- viability, T/C (second compound 0.0316 µM, first compound 1 µM): 17%
- viability, T/C (second compound 0.0316 µM, first compound 3.16 µM): 21.2%
- viability, T/C (second compound 0.0316 µM, first compound 10 µM): 20.9%
- viability, T/C (second compound 0.1 µM, first compound 0.0316 µM): 17.3%
- viability, T/C (second compound 0.1 µM, first compound 0.1 µM): 21%
- viability, T/C (second compound 0.1 µM, first compound 0.316 µM): 18.1%
- viability, T/C (second compound 0.1 µM, first compound 1 µM): 19.2%
- viability, T/C (second compound 0.1 µM, first compound 3.16 µM): 22.5%
- viability, T/C (second compound 0.1 µM, first compound 10 µM): 22.5%
- viability, T/C (second compound 0.316 µM, first compound 0.0316 µM): 15.3%
- viability, T/C (second compound 0.316 µM, first compound 0.1 µM): 17.8%
- viability, T/C (second compound 0.316 µM, first compound 0.316 µM): 19.5%
- viability, T/C (second compound 0.316 µM, first compound 1 µM): 17.6%
- viability, T/C (second compound 0.316 µM, first compound 3.16 µM): 18.4%
- viability, T/C (second compound 0.316 µM, first compound 10 µM): 23.3%
- viability, T/C (second compound 1 µM, first compound 0.0316 µM): 16.6%
- viability, T/C (second compound 1 µM, first compound 0.1 µM): 17.7%
- viability, T/C (second compound 1 µM, first compound 0.316 µM): 22.7%
- viability, T/C (second compound 1 µM, first compound 1 µM): 20%
- viability, T/C (second compound 1 µM, first compound 3.16 µM): 22.3%
- viability, T/C (second compound 1 µM, first compound 10 µM): 22.6%

SMILES: C=CC(=O)N1CCN(c2nc(OCC3CCCN3C)nc3c(F)c(-c4nc(N)cc(C)c4C(F)(F)F)c(Cl)cc23)C(C)C1 (centres undefined) + CCn1c(-c2cccnc2C(C)OC)c2c3cc(ccc31)N1CCOC(CC(NC(=O)C(C(C)C)N(C)C(=O)C3(F)CCN(C(=O)C#CC(C)(C)N(C)C)CC3)C(=O)N3CCCC(N3)C(=O)OCC(C)(C)C2)C1
- IC50 (second compound 0.000949 µM): < 3.16 nM
- IC50 (second compound 0.003 µM): < 3.16 nM
- IC50 (second compound 0.00949 µM): < 3.16 nM
- IC50 (second compound 0.03 µM): < 3.16 nM
- IC50 (second compound 0.0949 µM): < 3.16 nM
- IC50 (second compound 0.3 µM): < 3.16 nM
- viability, T/C (second compound 0.000949 µM, first compound 0.00316 µM): 24.9%
- viability, T/C (second compound 0.000949 µM, first compound 0.01 µM): 25.5%
- viability, T/C (second compound 0.000949 µM, first compound 0.0316 µM): 23.4%
- viability, T/C (second compound 0.000949 µM, first compound 0.1 µM): 23.8%
- viability, T/C (second compound 0.000949 µM, first compound 0.316 µM): 21.1%
- viability, T/C (second compound 0.000949 µM, first compound 1 µM): 22.7%
- viability, T/C (second compound 0.003 µM, first compound 0.00316 µM): 24.1%
- viability, T/C (second compound 0.003 µM, first compound 0.01 µM): 25.6%
- viability, T/C (second compound 0.003 µM, first compound 0.0316 µM): 21.5%
- viability, T/C (second compound 0.003 µM, first compound 0.1 µM): 22.8%
- viability, T/C (second compound 0.003 µM, first compound 0.316 µM): 21.1%
- viability, T/C (second compound 0.003 µM, first compound 1 µM): 24%
- viability, T/C (second compound 0.00949 µM, first compound 0.00316 µM): 22.8%
- viability, T/C (second compound 0.00949 µM, first compound 0.01 µM): 24.2%
- viability, T/C (second compound 0.00949 µM, first compound 0.0316 µM): 23.3%
- viability, T/C (second compound 0.00949 µM, first compound 0.1 µM): 20.6%
- viability, T/C (second compound 0.00949 µM, first compound 0.316 µM): 21.6%
- viability, T/C (second compound 0.00949 µM, first compound 1 µM): 22.1%
- viability, T/C (second compound 0.03 µM, first compound 0.00316 µM): 21.2%
- viability, T/C (second compound 0.03 µM, first compound 0.01 µM): 23.9%
- viability, T/C (second compound 0.03 µM, first compound 0.0316 µM): 17.8%
- viability, T/C (second compound 0.03 µM, first compound 0.1 µM): 18.9%
- viability, T/C (second compound 0.03 µM, first compound 0.316 µM): 21.1%
- viability, T/C (second compound 0.03 µM, first compound 1 µM): 22.4%
- viability, T/C (second compound 0.0949 µM, first compound 0.00316 µM): 21.4%
- viability, T/C (second compound 0.0949 µM, first compound 0.01 µM): 19.8%
- viability, T/C (second compound 0.0949 µM, first compound 0.0316 µM): 20.1%
- viability, T/C (second compound 0.0949 µM, first compound 0.1 µM): 20.2%
- viability, T/C (second compound 0.0949 µM, first compound 0.316 µM): 19.7%
- viability, T/C (second compound 0.0949 µM, first compound 1 µM): 21.3%
- viability, T/C (second compound 0.3 µM, first compound 0.00316 µM): 18%
- viability, T/C (second compound 0.3 µM, first compound 0.01 µM): 18%
- viability, T/C (second compound 0.3 µM, first compound 0.0316 µM): 20.5%
- viability, T/C (second compound 0.3 µM, first compound 0.1 µM): 19.6%
- viability, T/C (second compound 0.3 µM, first compound 0.316 µM): 16.5%
- viability, T/C (second compound 0.3 µM, first compound 1 µM): 20%

Reference: PubChem BioAssay AID2060901 (Molecular Pharmacology Branch, DTP, NCI, 2025)
